Reference: ChEMBL document CHEMBL1126540, “Synthesis and evaluation of 3-carboxymethyl steroids as inhibitors of human prostatic steroid 5-reductase” (Bioorg Med Chem Lett, 1993)

Test: Inhibition of Human prostatic Steroid 5-alpha-reductase
Conditions: read-out: Ki app

CC(C)N(C(=O)[C@H]1CC[C@H]2[C@@H]3CCc4cc(C(F)(F)C(=O)O)ccc4[C@H]3CC[C@]12C)C(C)C
Ki: 0.04 µM

CC(C)N(C(=O)[C@H]1CC[C@H]2[C@@H]3CCc4cc(CCC(=O)O)ccc4[C@H]3CC[C@]12C)C(C)C
Ki: 0.29 µM

CC(C)N(C(=O)[C@H]1CC[C@H]2[C@@H]3CCc4cc(CS(=O)(=O)O)ccc4[C@H]3CC[C@]12C)C(C)C
Ki: > 5 µM

CC(C)N(C(=O)[C@H]1CC[C@H]2[C@@H]3CCc4cc(CP(=O)(O)O)ccc4[C@H]3CC[C@]12C)C(C)C
Ki: 0.74 µM

CC(C)N(C(=O)[C@H]1CC[C@H]2[C@@H]3CCc4cc(C(=O)C(=O)O)ccc4[C@H]3CC[C@]12C)C(C)C
Ki: 0.15 µM

CC(C)N(C(=O)[C@H]1CC[C@H]2[C@@H]3CCc4cc(CC(=O)O)ccc4[C@H]3CC[C@]12C)C(C)C
Ki: 0.02 µM

CC(C)N(C(=O)[C@H]1CCC2C3CC=C4C=C(C(=O)O)CC[C@]4(C)C3CC[C@@]21C)C(C)C (some centres undefined)
Ki: 0.007 µM

CC(C)N(C(=O)[C@H]1CCC2C3CC[C@H]4CC(CC(=O)O)=CC[C@]4(C)C3CC[C@@]21C)C(C)C (some centres undefined)
Ki: 0.04 µM

CC(C)N(C(=O)[C@H]1CCC2C3CC[C@H]4C=C(CC(=O)O)CC[C@]4(C)C3CC[C@@]21C)C(C)C (some centres undefined)
Ki: 0.085 µM

CC(C)N(C(=O)[C@H]1CC[C@H]2[C@@H]3CC[C@H]4C/C(=C/C(=O)O)CC[C@]4(C)[C@H]3CC[C@]12C)C(C)C
Ki: > 5 µM

CC(C)N(C(=O)[C@H]1CCC2C3CCC4=C/C(=C\C(=O)O)CC[C@]4(C)C3CC[C@@]21C)C(C)C (some centres undefined)
Ki: > 5 µM

CC(C)N(C(=O)[C@H]1CCC2C3CC[C@H]4C=C(C(=O)O)CC[C@]4(C)C3CC[C@@]21C)C(C)C (some centres undefined)
Ki: 0.03 µM

CC(C)N(C(=O)[C@H]1CCC2C3CC=C4C=C(CC(=O)O)CC[C@]4(C)C3CC[C@@]21C)C(C)C (some centres undefined)
Ki: 0.45 µM

CC(C)N(C(=O)[C@H]1CCC2C3CCC4=C/C(=C/C(=O)O)CC[C@]4(C)C3CC[C@@]21C)C(C)C (some centres undefined)
Ki: > 5 µM
